Earlier results, collected in article PMC8288134, “Synthesis, potential antitumor activity, cell cycle analysis, and multitarget mechanisms of novel hydrazones incorporating a 4-methylsulfonylbenzene scaffold: a molecular docking study” (Journal of Enzyme Inhibition and Medicinal Chemistry, 2021).

Legend:
HL-60(TB) = system: HL-60(TB); set-up: method as in https://dtp.cancer.gov/dtpstandard/dwindex/index.jsp; conditions: reference drugs, ref https://dtp.cancer.gov/dtpstandard/dwindex/index.jsp; cited from earlier work
A549/ATCC = system: A549/ATCC; set-up: method as in https://dtp.cancer.gov/dtpstandard/dwindex/index.jsp; conditions: reference drugs, ref https://dtp.cancer.gov/dtpstandard/dwindex/index.jsp; cited from earlier work
NCI-H460 = system: NCI-H460; set-up: method as in https://dtp.cancer.gov/dtpstandard/dwindex/index.jsp; conditions: reference drugs, ref https://dtp.cancer.gov/dtpstandard/dwindex/index.jsp; cited from earlier work
HCT-15 = system: HCT-15; set-up: method as in https://dtp.cancer.gov/dtpstandard/dwindex/index.jsp; conditions: reference drugs, ref https://dtp.cancer.gov/dtpstandard/dwindex/index.jsp; cited from earlier work
LOX IMVI = system: LOX IMVI; set-up: method as in https://dtp.cancer.gov/dtpstandard/dwindex/index.jsp; conditions: reference drugs, ref https://dtp.cancer.gov/dtpstandard/dwindex/index.jsp; cited from earlier work
MALME-3M = system: MALME-3M; set-up: method as in https://dtp.cancer.gov/dtpstandard/dwindex/index.jsp; conditions: reference drugs, ref https://dtp.cancer.gov/dtpstandard/dwindex/index.jsp; cited from earlier work
MDA-MB-435 = system: MDA-MB-435; set-up: method as in https://dtp.cancer.gov/dtpstandard/dwindex/index.jsp; conditions: reference drugs, ref https://dtp.cancer.gov/dtpstandard/dwindex/index.jsp; cited from earlier work
UACC-62 = system: UACC-62; set-up: method as in https://dtp.cancer.gov/dtpstandard/dwindex/index.jsp; conditions: reference drugs, ref https://dtp.cancer.gov/dtpstandard/dwindex/index.jsp; cited from earlier work
IGROV1 = system: IGROV1; set-up: method as in https://dtp.cancer.gov/dtpstandard/dwindex/index.jsp; conditions: reference drugs, ref https://dtp.cancer.gov/dtpstandard/dwindex/index.jsp; cited from earlier work
OVCAR-3 = system: OVCAR-3; set-up: method as in https://dtp.cancer.gov/dtpstandard/dwindex/index.jsp; conditions: reference drugs, ref https://dtp.cancer.gov/dtpstandard/dwindex/index.jsp; cited from earlier work
SN12C = system: SN12C; set-up: method as in https://dtp.cancer.gov/dtpstandard/dwindex/index.jsp; conditions: reference drugs, ref https://dtp.cancer.gov/dtpstandard/dwindex/index.jsp; cited from earlier work
PC-3 = system: PC-3; set-up: method as in https://dtp.cancer.gov/dtpstandard/dwindex/index.jsp; conditions: reference drugs, ref https://dtp.cancer.gov/dtpstandard/dwindex/index.jsp; cited from earlier work
HS 578 T = system: HS 578 T; set-up: method as in https://dtp.cancer.gov/dtpstandard/dwindex/index.jsp; conditions: reference drugs, ref https://dtp.cancer.gov/dtpstandard/dwindex/index.jsp; cited from earlier work
[1] = system: NSC lung cancer tumour cell lines; conditions: cited from earlier work
[2] = system: colon cancer tumour cell lines; conditions: cited from earlier work
[3] = system: prostate cancer tumour cell lines; conditions: cited from earlier work
[4] = read-out: GI50 (subpanel average), reference drugs, ref https://dtp.cancer.gov/dtpstandard/dwindex/index.jsp
[5] = read-out: LC50 (subpanel average), reference drugs, ref https://dtp.cancer.gov/dtpstandard/dwindex/index.jsp
[6] = reference drugs, ref https://dtp.cancer.gov/dtpstandard/dwindex/index.jsp

## C#Cc1cccc(Nc2ncnc3cc(OCCOC)c(OCCOC)cc23)c1 [Erlotinib, erlotinib]
HL-60(TB)
  GI50: 25.1 µM
A549/ATCC
  GI50: 10 µM
NCI-H460
  GI50: 6.31 µM
HCT-15
  GI50: 3.98 µM
LOX IMVI
  GI50: 6.31 µM
MALME-3M
  GI50: 1.58 µM
MDA-MB-435
  GI50: 19.9 µM
UACC-62
  GI50: 3.16 µM
IGROV1
  GI50: 0.316 µM
OVCAR-3
  GI50: 3.98 µM
SN12C
  GI50: 1.58 µM
PC-3
  GI50: 39.8 µM
HS 578 T
  GI50: 6.31 µM
[1]; [4]
  GI50: 13.1 µM
[1]; [5]
  CC50: 97.7 µM
[1]; [6]
  TGI (subpanel average): 73.76 µM
[2]; [4]
  GI50: 51.7 µM
[2]; [5]
  CC50: > 100 µM
[2]; [6]
  TGI (subpanel average): c (Compounds showed values ≥ 100 µM)
[3]; [4]
  GI50: 20.9 µM
[3]; [5]
  CC50: > 100 µM
[3]; [6]
  TGI (subpanel average): c (Compounds showed values ≥ 100 µM)
